Measurements taken from patent publication US20140227174A1, “SKIN PERMEATING AND CELL ENTERING (SPACE) PEPTIDES AND METHODS OF USE THEREFOR” (CONVOY THERAPEUTICS, priority 2013, published 2014).
Each block holds one molecule with its values, some of them ahead of it. Residues, ends and D or L forms follow the SMILES beside them.

Assays:
Type in all cases: in vitro ADME
Full thickness pig skin [1] = test: In vitro delivery of siRNA to skin in Franz diffusion cells; settings: 100 microliters of 25 nmole/ml; area of 2 sq. cm; 24 hours
Experimental: Full thickness pig skin (Lampire Biological Laboratories, Pipersville, Pa.) was used. The skin was stored at −80° C. and defrosted immediately prior to use. Briefly, the skin was allowed to thaw with the stratum corneum side up left open to the atmosphere for at least half hour. Skin disks of 36 mm were punched out. The subcutaneous fatty tissue was carefully removed from the dermis, and the hair shaft was cut off to no more than 4 mm. The skin piece was cleaned with PBS (pH 7.4). […]
In vitro skin penetration and deposition experiments of different formulations were run in Franz diffusion cells occlusively and maintained at 37±1° C. throughout the experiments. […] At the end of an experiment, a sample of 1 ml was withdrawn from the receptor phase for concentration measurement by fluorescence assay using a micro-plate reader (SAFIRE, XFLUOR4, V4.50, Tecan Group Ltd, NY, US). […]
The stratum corneum was removed by striping with an adhesive tape (SCOTCH® Transparent Tape, 3M Corporate, St. Paul, Minn.). […] The supernatant were withdrawn, diluted if necessary and analyzed by fluorescence measurement.
The concentrations of FAM-GAPDH-siRNA and FAM-GAPDH-siRNA-SPACE-Peptide conjugates were determined by fluorescence spectroscopy. Fluorescence detection was performed at an excitation of 495 nm and an emission of 525 nm for both conjugates. […]

EPIDERM™ tissue = test: Penetration of SPACE Peptide formulations across EPIDERM tissue; settings: 100 μl on 2 cm^2, 24 hours
Experimental: Additional experiments performed using EPIDERM™ tissue confirmed penetration of SPACE Peptide across the skin. For this purpose, the SPACE Peptide formulations were prepared using the methods described herein above. EPIDERM™ tissues were obtained from MatTek Corporation (Ashland, Mass.). […] A 100 microliter formulation applied on EPIDERM™ tissue for 24 hours was determined to deliver 25% of SPACE Peptide across EPIDERM™ tissue.
FIG. 8C is a bar graph showing delivery of a fluorescent label to EPIDERM™ (left column of each pair) and a pig skin model (right column of each pair) using different formulations the contain SPACE Peptides. A 100 μl sample of various formulations was placed on a 2 cm^2 skin sample and penetration was tested 24 hours after application.

[2] = tested on: epidermis and dermis from porcine skin; test: Partitioning of SPACE Peptide into isolated epidermis and dermis; settings: ratio of concentrations in skin layer and surrounding PBS; aqueous solution of SPACE Peptide; after 24 hours
Experimental: FIG. 5 is a schematic representation of the measurement of partitioning of SPACE peptide. FITC-SPACE peptide was incubated epidermis-SC and dermis for […] at 37° C. and the amount of SPACE peptide partitioned into the tissue was measured.
In these experiments, epidermis and dermis from porcine skin were isolated and placed in separate vials in an aqueous solution of SPACE Peptide of SEQ ID NO: 13. The amount of SPACE Peptide that partitioned into each skin layer was measured after 24 hours. The ratio of concentrations in skin layers and surrounding PBS was used to determine the partition coefficient.

Full thickness pig skin [3] = tested on: Full thickness pig skin
Experimental: Full thickness pig skin (Lampire Biological Laboratories, Pipersville, Pa.) was used. The skin was stored at −80° C. and defrosted immediately prior to use. Briefly, the skin was allowed to thaw with the stratum corneum (SC) side up left open to the atmosphere. Skin disks of 36 mm were punched out. The subcutaneous fatty tissue was carefully removed from the dermis, and the hair shaft was clipped to no more than 4 mm. The skin pieces were cleaned with PBS (pH 7.4). Subsequently, the integrity of the skin disks were checked with a skin conductivity measurement to ensure that samples were free from any surface irregularity such as tiny holes or crevices in the portion that was used for skin penetration and deposition studies.
In vitro skin penetration and deposition experiments of different liposomal systems containing a SPACE Peptide labeled with fluorescein isothiocyanate (FITC-SPACE), CsA, or fluorescent hyaluronidase (Fluorescein-HA) were run in Franz diffusion cells occlusively and maintained at 37±1° C. throughout experiments using an oven. The effective penetration area and receptor cell volume were 1.77 cm^2 and 12.0 ml, respectively. The acceptor compartment was filled with PBS pH 7.4 as the receptor medium. Each test formulation was investigated in triplicate. Skin disks were mounted with the SC side up and the donor compartment left dry and open to atmosphere for 0.5 hour before test formulation application. Caution was taken to remove all air bubbles between the underside of the skin (dermis) and the acceptor solution. The skin was stretched in all directions to avoid the presence of furrows.
100-200 μL of the test formulation was applied to skin surface using a pipette. The experiments were carried out under occlusion with light protection. The incubation time of the skin with each test formulation was 24 hours. At the end of an experiment, a sample of 1-3 mL was withdrawn from the receptor phase for concentration measurement by fluorescence assay using a micro-plate reader (SAFIRE, XFLUOR4, V4.50, Tecan Group Ltd, NY, United States of America) for fluorescence. In the case of CsA experiments, a sample of 3 ml was withdrawn from the receptor phase for ^3H-CsA measurement by a liquid scintillation counter (TRI-GARB 2100TR, Packard Instrument Company, Downers Grove, Ill.). The formulations were removed from the skin by washing five times with PBS (pH 7.4). After cleaning, the skin was transferred onto a device for tape-stripping the SC.
The stratum corneum was removed by striping with an adhesive tape (SCOTCH® Transparent Tape, 3M Corporate, St. Paul, Minn.). In order to avoid any furrows, which could be a reason for false results of the stripping procedure, the skin was stretched and mounted on cork discs as mentioned previously. The skin was covered with a TEFLON® mask with a central hole of 15 mm in diameter. Adhesive tape was put onto the skin and a weight of 2 kg was placed on the tape for 10 seconds. The tape was rapidly removed with forceps and transferred into a glass vial of suitable size. Ten stripping procedures were performed consecutively. For analytical reasons, the stripped tapes were collected in glass vials according the following scheme: vial 1=strip 1st, vial 2=strip 2nd-5th, and vial 3=strip 6th-10th. After tape-stripping, the epidermis sheet was separated from the dermis with a sterile surgical scalpel and cut into small pieces and collected into a glass vial. […]

penetration of siRNA into skin (applied dose) (Full thickness pig skin [1]): 3.3%
Molecule: 5′-FAM-GACGUAAACGGCCACAAGUUC-3′ [siRNA aqueous solution]

penetration into EPIDERM tissue (FIG. 8C) (EPIDERM™ tissue): penetrated into the EPIDERM™ tissue
Molecule: C[C@H](NC(=O)CCCCCNC(=S)Nc1ccc2c(c1)C(=O)OC21c2ccc(O)cc2Oc2cc(O)ccc21)C(=O)N[C@H]1CSSC[C@@H](C(=O)NCC(=O)O)NC(=O)[C@H](CCC(N)=O)NC(=O)[C@H](Cc2c[nH]cn2)NC(=O)[C@H](CCC(N)=O)NC(=O)[C@H]([C@@H](C)O)NC(=O)[C@H](CO)NC(=O)CNC(=O)[C@H]([C@@H](C)O)NC1=O [FITC-SPACE] (HELM PEPTIDE1{[O=C1OC2(c3ccc(O)cc3Oc3cc(O)ccc32)c2ccc(NC(=S)[*:2])cc21].[O=C(CCCCCN[*:1])[*:2]].A.C.T.G.S.T.Q.H.Q.C.G}$PEPTIDE1,PEPTIDE1,4:R3-12:R3$$$V2.0; C-terminus assumed)

partition coefficient in the dermis [2]: 4.3
partition coefficient in the epidermis [2]: 9.8
Molecule: C[C@H](N)C(=O)N[C@H]1CSSC[C@@H](C(=O)NCC(=O)O)NC(=O)[C@H](CCC(N)=O)NC(=O)[C@H](Cc2c[nH]cn2)NC(=O)[C@H](CCC(N)=O)NC(=O)[C@H]([C@@H](C)O)NC(=O)[C@H](CO)NC(=O)CNC(=O)[C@H]([C@@H](C)O)NC1=O [SPACE Peptide] (HELM PEPTIDE1{A.C.T.G.S.T.Q.H.Q.C.G}$PEPTIDE1,PEPTIDE1,2:R3-10:R3$$$V2.0; N-terminus and C-terminus assumed)
penetration of FITC label into skin layers (summary of FIG. 8B) (Full thickness pig skin [3]): enhanced penetration of FITC-SPACE Peptide formulations

HA delivery in the epidermis (Full thickness pig skin [3]): less than 0.5 microgram per sq. cm
HA delivery, formulation made at pH 8 versus otherwise identical formulation at pH 4 (Full thickness pig skin [3]): delivered less HA
amount of HA in the skin compared with the receiver compartment (Full thickness pig skin [3]): significantly higher
topically-applied HA penetrating into skin (Full thickness pig skin [3]): about 17%
Molecule: Hyaluronic acid [HA]
